The values below come from patent US9259487B2, “Transgenic non-human animal model of neurodegenerative disease” (Nagasaki University, priority 2011, dated 2016).

Type in all cases: in vivo, mouse
In assay [1] the test system is GgFF mice. Kind of assay: Rotarod dwelling time (30 rpm, 40 rpm) of aged mice deficient in prothymosin α in striatum. In general terms: In the rotarod test animals must keep their balance on a rotating rod.
In assay [2] the test system is GgFF mice. Kind of assay: Clasping reflex score of aged mice deficient in prothymosin α in striatum.
Assay [3] has as its system GgFF mice. In words: Survival ratio after 15-min transient middle cerebral artery occlusion (tMCAO). The conditions noted are these: 8- to 16-week-old GgFF mice, administration group.
Assay [4] deals with GgFF mice. In words: Clinical score (motility dysfunction) after 15-min tMCAO. Particulars: 8- to 16-week-old GgFF mice, selegiline 10 mg/kg intraperitoneally after 15-min tMCAO.
The subject of assay [5] is GgFF mice. Kind of assay: Rotarod dwelling time (motility function) after 15-min tMCAO. The conditions noted are these: 8- to 16-week-old GgFF mice, selegiline 10 mg/kg intraperitoneally after 15-min tMCAO, 6 rpm and 12 rpm.

Take `Cl.Oc1cc2c(cc1O)C(c1ccccc1)CNCC2` (racemic) [SKF38393, (±)-1-phenyl-2,3,4,5-tetrahydro-1H-3-benzazepine-7,8-diol HCl]: the “motility dysfunction in the Rotarod test” value in the assay on GgFF mice [1] (20- to 30-week-old GgFF mice, 5 hr after intraperitoneal administration of 30 mg/kg, 30 rpm, vs vehicle) is “significantly improved”.
Turning to `CC12CC3CC(C)(C1)CC(N)(C3)C2` [memantine], the “symptom (clasping scores), chronic administration” value in the assay with GgFF mice [2] (memantine 10 mg/kg intraperitoneally every day from Day 1 to Day 7) is “remarkable recovery”. The “symptom (motility function by Rotarod), chronic administration” value in the assay on GgFF mice [1] (aged GgFF mice, memantine 10 mg/kg intraperitoneally every day from Day 1 to Day 7, 30 rpm and 40 rpm) was “remarkable recovery”. Also, the “motility function, acute (within 24 hr)” value in the assay with GgFF mice [1] (aged GgFF mice, memantine 10 mg/kg intraperitoneally, 24 hr after the administration) is listed as “most recovered”.
For `CCCN[C@H]1CCc2nc(N)sc2C1` [pramipexole], the survival ratio with GgFF mice [3] (pramipexole 0.01 mg/kg intraperitoneally after 15-min tMCAO) was 75%.
In the case of `C#CCN(C)[C@H](C)Cc1ccccc1` [selegiline], the survival ratio result with GgFF mice [3] (selegiline 10 mg/kg intraperitoneally after 15-min tMCAO) is reported as “markedly-improved”. For the same molecule, the “motility dysfunction (Clinical score)” value in the assay on GgFF mice [4] is recorded as “remarkably improved”. Further, the “motility function (dwelling time on Rotarod, Latency to fall) vs non-administration group” value in the assay on GgFF mice [5] is given as “improved motility function”. In the assay on GgFF mice [2] (selegiline 10 mg/kg intraperitoneally), the “clasping scores vs before administration, acute (within 24 hr)” value is “tended to improve”. Besides, in the assay on GgFF mice [1] (aged GgFF mice, selegiline 10 mg/kg intraperitoneally, 30 rpm and 40 rpm), the “dwelling time on the Rotarod vs before administration, acute (within 24 hr)” value is on record as “tended to be long”.
